{"source": "patent US9649324B2", "about": "“Use of tylvalosin as antiviral agent” (ECO ANIMAL HEALTH LIMITED, priority 2006, dated 2017)", "key": {"[1]": {"test_system": "PRRSV", "assay": "PRRSV infection and cell spread in MA104 cells, drug added after infection (Example 5)", "format": "cell-based", "conditions": "moi 0.01, 1 μg/ml added 8 hours post infection", "experimental": "MA104 cells were infected with PRRSV at moi of 0.01 (should infect roughly 10% of the cells in the first round). 8 hours post infection tylvalosin, tylosin and tilmicosin were added at 1 μg/ml. Cells were harvested 28 hours post infection and infection was assessed by indirect immunofluorescence.\nAs stated above a moi of 0.01 should infect roughly 10% of the cells. However, after 28 hours the virus will have completed one round of infection and will have infected neighbouring cells. […] This detection increases 16-20 hours post infection and by 24 hours low levels of expression in neighbouring cells can be detected.\nThe addition of drugs 8 hours post infection should have no effect on the primary infection (i.e. no effect on entry of input virus). It could, however, effect viral replication directly or indirectly through other mechanisms and could also effect virus entry during the secondary round of infection where virus produced by the initially infected cells infects neighbouring cells."}, "[2]": {"test_system": "endosomal pH", "assay": "Acridine orange assay of endosomal pH (Example 13)", "format": "cell-based", "experimental": "Acridine orange is a dye that causes cells to fluoresce green with the exception of acidic compartments (such as endosomes) that appear red—due to the protonation of the dye and quenching of the green fluorescence. A substance that raises the endosomal pH will prevent the appearance of the red fluorescence. The effect of Aivlosin® and other macrolide antibiotics on a the staining of endosomes by acridine orange in number of cells lines was determined (see FIG. 19). An area of cells grown on a glass coverslip is first selected using a DAPI stain. […] This selection procedure helps reduce any bias in the results. The green and red filters on the epifluorescence microscope were then used to examine about 20 cells. The number of red spots (endosome vesicles) in was determined. The average number of Acridine orange stained endosomes was counted."}, "[3]": {"test_system": "PRRSV strain, VR2385", "assay": "Efficacy of tylvalosin in feed for the control of PRRSV in challenged pigs (Example 14)", "format": "in vivo, pig", "conditions": "for Mean maximum respiratory score: score 0-6"}, "[4]": {"conditions": "Group 1, 100 ppm in feed, Trial Day 17"}, "[5]": {"conditions": "Group 1, 100 ppm in feed, Trial Day 28"}, "[6]": {"conditions": "Group 2, 200 ppm in feed, Trial Day 17"}, "[7]": {"conditions": "Group 2, 200 ppm in feed, Trial Day 28"}, "[8]": {"conditions": "Group 3, 600 ppm in feed, Trial Day 17"}, "[9]": {"conditions": "Group 3, 600 ppm in feed, Trial Day 28"}}, "data": [{"smiles": "CCC1OC(=O)CC(OC(C)=O)C(C)C(OC2OC(C)C(OC3CC(C)(O)C(OC(=O)CC(C)C)C(C)O3)C(N(C)C)C2O)C(CC=O)CC(C)C(=O)C=CC(C)=CC1COC1OC(C)C(O)C(OC)C1OC", "note": "(stereo not drawn) [tylvalosin, 3-O acetyl-4″-O-isovaleryltylosin]", "values": [{"measurement": "spread of the virus to neighbouring cells", "setting": "[1]", "result": "prevented spread"}, {"measurement": "virus positive cells", "setting": "[1]; harvested 28 hours post infection", "result": 1, "unit": "%"}, {"measurement": "effect on raising the pH in the endosomes", "setting": "[2]; acridine orange stained endosomes, any cell line", "result": "raises the pH in endosomes"}, {"measurement": "effect on endosomal pH", "setting": "[2]; epithelial cells", "result": "greater effects than tilmicosin"}, {"measurement": "severity of macroscopic pneumonia", "setting": "[3]; 100, 200, 600 ppm in feed versus non-treated controls", "result": "No differences"}, {"measurement": "Mean average rectal temperature", "setting": "[3]; Group 1, 100 ppm in feed", "result": "103.6 ± 0.1"}, {"measurement": "Mean maximum rectal temperature", "setting": "[3]; Group 1, 100 ppm in feed", "result": "104.5 ± 0.2", "unit": "A"}, {"measurement": "Mean microscopic PRRSV lung lesion score", "setting": "[3]; Group 1, 100 ppm in feed, Necropsy 1 (Trial Day 17, 10 days post infection)", "result": "0.2 ± 0.2", "unit": "A"}, {"measurement": "Mean microscopic PRRSV lung lesion score", "setting": "[3]; Group 1, 100 ppm in feed, Necropsy 2 (Trial Day 28, 21 days post infection)", "result": "2.1 ± 0.4"}, {"measurement": "Average daily gain", "setting": "[3]; Group 1, 100 ppm in feed, Trial Day 7", "result": "1.57 ± .09 lbs"}, {"measurement": "Mean real-time RT-PCR (PRRSV RNA copy numbers in serum)", "setting": "[3]; Group 1, 100 ppm in feed, Trial Day 10", "result": "15,289.88 B, C"}, {"measurement": "Average daily gain", "setting": "[3]; Group 1, 100 ppm in feed, Trial Day 14", "result": "1.5 ± .05 lbs"}, {"measurement": "Average daily gain", "setting": "[3]; [4]", "result": "1.59 ± .05 A lbs"}, {"measurement": "Mean real-time RT-PCR (PRRSV RNA copy numbers in serum)", "setting": "[3]; [4]", "result": "95,315.72"}, {"measurement": "Mean real-time RT-PCR (PRRSV RNA copy numbers in serum)", "setting": "[3]; Group 1, 100 ppm in feed, Trial Day 21", "result": "36,451.13"}, {"measurement": "Average daily gain", "setting": "[3]; [5]", "result": "1.42 ± .05 lbs"}, {"measurement": "Mean real-time RT-PCR (PRRSV RNA copy numbers in serum)", "setting": "[3]; [5]", "result": "5,301.63"}, {"measurement": "Mean maximum respiratory score", "setting": "[3]; Group 1, 100 ppm in feed", "result": "0.5 ± 0.1", "unit": "A*"}, {"measurement": "Mean average rectal temperature", "setting": "[3]; Group 2, 200 ppm in feed", "result": "103.7 ± 0.1"}, {"measurement": "Mean maximum rectal temperature", "setting": "[3]; Group 2, 200 ppm in feed", "result": "104.7 ± 0.2", "unit": "A"}, {"measurement": "Mean microscopic PRRSV lung lesion score", "setting": "[3]; Group 2, 200 ppm in feed, Necropsy 1 (Trial Day 17, 10 days post infection)", "result": "2.0 ± 0.3", "unit": "B"}, {"measurement": "Mean microscopic PRRSV lung lesion score", "setting": "[3]; Group 2, 200 ppm in feed, Necropsy 2 (Trial Day 28, 21 days post infection)", "result": "1.9 ± 0.3"}, {"measurement": "Average daily gain", "setting": "[3]; Group 2, 200 ppm in feed, Trial Day 7", "result": "1.52 ± .10 lbs"}, {"measurement": "Mean real-time RT-PCR (PRRSV RNA copy numbers in serum)", "setting": "[3]; Group 2, 200 ppm in feed, Trial Day 10", "result": "19,336.8 C"}, {"measurement": "Average daily gain", "setting": "[3]; Group 2, 200 ppm in feed, Trial Day 14", "result": "1.45 ± .06 lbs"}, {"measurement": "Average daily gain", "setting": "[3]; [6]", "result": "1.59 ± .07 A, B lbs"}, {"measurement": "Mean real-time RT-PCR (PRRSV RNA copy numbers in serum)", "setting": "[3]; [6]", "result": "78,804.81"}, {"measurement": "Mean real-time RT-PCR (PRRSV RNA copy numbers in serum)", "setting": "[3]; Group 2, 200 ppm in feed, Trial Day 21", "result": "18,724.88"}, {"measurement": "Average daily gain", "setting": "[3]; [7]", "result": "1.53 ± .07 lbs"}, {"measurement": "Mean real-time RT-PCR (PRRSV RNA copy numbers in serum)", "setting": "[3]; [7]", "result": 892.36}, {"measurement": "Mean maximum respiratory score", "setting": "[3]; Group 2, 200 ppm in feed", "result": "0.6 ± 0.2", "unit": "A"}, {"measurement": "Mean average rectal temperature", "setting": "[3]; Group 3, 600 ppm in feed", "result": "103.8 ± 0.1"}, {"measurement": "Mean maximum rectal temperature", "setting": "[3]; Group 3, 600 ppm in feed", "result": "105.8 ± 0.3", "unit": "B"}, {"measurement": "Mean microscopic PRRSV lung lesion score", "setting": "[3]; Group 3, 600 ppm in feed, Necropsy 1 (Trial Day 17, 10 days post infection)", "result": "2.0 ± 0.3", "unit": "B"}, {"measurement": "Mean microscopic PRRSV lung lesion score", "setting": "[3]; Group 3, 600 ppm in feed, Necropsy 2 (Trial Day 28, 21 days post infection)", "result": "1.5 ± 0.3"}, {"measurement": "Average daily gain", "setting": "[3]; Group 3, 600 ppm in feed, Trial Day 7", "result": "1.83 + .16 lbs"}, {"measurement": "Mean real-time RT-PCR (PRRSV RNA copy numbers in serum)", "setting": "[3]; Group 3, 600 ppm in feed, Trial Day 10", "result": "54,487.19 A, B"}, {"measurement": "Average daily gain", "setting": "[3]; Group 3, 600 ppm in feed, Trial Day 14", "result": "1.47 ± .06 lbs"}, {"measurement": "Average daily gain", "setting": "[3]; [8]", "result": "1.44 ± .04 A, B lbs"}, {"measurement": "Mean real-time RT-PCR (PRRSV RNA copy numbers in serum)", "setting": "[3]; [8]", "result": "146,655.4"}, {"measurement": "Mean real-time RT-PCR (PRRSV RNA copy numbers in serum)", "setting": "[3]; Group 3, 600 ppm in feed, Trial Day 21", "result": "30,260.69"}, {"measurement": "Average daily gain", "setting": "[3]; [9]", "result": "1.47 ± .06 lbs"}, {"measurement": "Mean real-time RT-PCR (PRRSV RNA copy numbers in serum)", "setting": "[3]; [9]", "result": "1,292.31"}, {"measurement": "Mean maximum respiratory score", "setting": "[3]; Group 3, 600 ppm in feed", "result": "1.8 ± 0.3", "unit": "B"}, {"measurement": "clinical disease and viremia associated with PRRSV infection", "setting": "[3]; lower doses (in feed)", "result": "appears to reduce clinical disease and viremia"}]}]}
